From patent EP0671918B1, “COMPOSITIONS CONTAINING ACYCLOVIR-LIKE COMPOUNDS AND 2'-VINYL SUBSTITUTED NUCLEOSIDE ANALOGS FOR THE TREATMENT OF VIRAL INFECTIONS” (MERRELL PHARMACEUTICALS INC., priority 1992, dated 1994)

How the values were obtained:
[1] = tested on: herpes simplex virus type I; test: Anti-herpes viral yield reduction in vero cells, plaque method; type: cell-based, herpes simplex virus KOS (type 1); details: 24 hours post infection
Description: (§1) Two strains of herpes simplex virus are used: KOS (type 1) and EKC (type 2). Prepare all of the virus stocks by infecting vero cells at an input multiplicity of 0.1 PFU/cell. Sonically disrupt the cultures at 20-24 hours post infection and store them at -70°C after inclusion of DMSO to 5% (v/v) to prevent freeze damage.
(§2) Determine the anti-herpes viral activity of the compounds by a known method (Ash and Diekema, Antiviral Research, 8: 71-83 (1987)). For example, infect vero cells with each strain of HSV at 1 PFU/Cell. At the end of the absorption period (60 min., 36°C), remove the unattached virus. Wash cell sheets twice with Eagles basal medium (EBM) and 2% fetal calf serum (FCS). Add fresh medium containing the test compounds. Finally, determine viral yields at 24 hours post infection by plaque method on vero cells with methyl cellulose overlay (0.5% in EBM + 1% FCS).

[2] = tested on: herpes simplex virus type II; test: as above; type: cell-based, herpes simplex virus EKC (type 2); details: 24 hours post infection; for Virus Titer: Viral Control 1.24x10^5
Description: as §1, §2

[3] = Single agent, Conc. 5.0 ng/ml, Viral Control 2.6x10^5

Compound	inhibition at 0.0025 µg/mL ([1]; Single agent, Conc. 2.5 ng/ml) [%]	Virus Titer ([1]; Single agent, Conc. 2.5 ng/ml, Viral Control 2.6x10^5)	inhibition at 0.005 µg/mL ([1]; Single agent, Conc. 5.0 ng/ml) [%]	Virus Titer [1, 3]	inhibition at 0.0125 µg/mL ([1]; Conc. 0.0125 ug/ml) [%]	Virus Titer ([1]; Conc. 0.0125 ug/ml, Viral Control 3.7x10^8)	inhibition at 0.025 µg/mL ([1]; Conc. 0.025 ug/ml) [%]	Virus Titer ([1]; Conc. 0.025 ug/ml, Viral Control 3.7x10^8)	inhibition at 0.05 µg/mL ([1]; Conc. 0.050 ug/ml) [%]	Virus Titer ([1]; Conc. 0.050 ug/ml, Viral Control 3.7x10^8) [P.F.U./ml]	inhibition at 0.1 µg/mL ([1]; Conc. 0.10 ug/ml) [%]	Virus Titer ([1]; Conc. 0.10 ug/ml, Viral Control 3.7x10^8) [P.F.U./ml]	inhibition at 0.0125 µg/mL ([2]; Conc. 0.0125 ug/ml) [%]	Virus Titer ([2]; Conc. 0.0125 ug/ml)	inhibition at 0.025 µg/mL ([2]; Conc. 0.025 ug/ml) [%]	Virus Titer ([2]; Conc. 0.025 ug/ml)	inhibition at 0.05 µg/mL ([2]; Conc. 0.050 ug/ml) [%]	Virus Titer ([2]; Conc. 0.050 ug/ml) [P.F.U./ml]	inhibition at 0.1 µg/mL ([2]; Conc. 0.10 ug/ml) [%]	Virus Titer ([2]; Conc. 0.10 ug/ml) [P.F.U./ml]
Nc1nc2c(ncn2COCCO)c(=O)[nH]1 [ACV, 9-[(2-hydroxyethoxy)methyl]guanine, reference compound]	0	3x10^5 P.F.U./ml	30	1.85x10^5 P.F.U./ml	–	–	–	–	–	–	–	–	–	–	–	–	–	–	–	–
Nc1ccn([C@@H]2O[C@H](CO)[C@@H](O)/C2=C\F)c(=O)n1 [Compound A, (E)-2'-deoxy-2'-fluoromethylidenecytidine]	–	–	42	1.6x10^5 P.F.U./ml	0	5.5x10^8 P.F.U./ml	88	4.5x10^7 P.F.U./ml	100	0	100	0	32	8.5x10^4 P.F.U./ml	96	5.5x10^3 P.F.U./ml	100	0	100	0
